Assay results from patent US9175011B2, “Morpholino substituted urea or carbamate derivatives as MTOR inhibitors” (CELLZOME LIMITED, priority 2011, dated 2015).

Assays:
mTOR = molecular target: T1, mTOR (Homo sapiens, UniProt P42345); experiment: mTOR kinobeads assay (Jurkat cell lysate, dot blot detection); format: binding; conditions: read-out: Inhibition values (IC50) mTor
T1 construct: Jurkat cells were homogenized in a Potter S homogenizer in lysis buffer; endogenous in cells; host or cells: Jurkat, clone E6-1 (ATCC TIB-152) lysate
In short: (§1)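 Jurkat cell lysate (5 mg/ml protein) competed for 3 h in the cold with compound (1:3 series, 9 steps, 5 mM top in DMSO) against immobilized phenylthiazole and phenylmorpholin-chromen bead matrix. Bead-bound kinase eluted and quantified by specific antibody dot blot with infrared detection; IC50 from dose-response curves.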

PI3K alpha (PI3Kα) = molecular target: T2, PI3K alpha (PI3Kα) (Homo sapiens, UniProt P42336); experiment: kinobeads assay, PI3K alpha; format: binding; conditions: Jurkat cell lysate, read-out: Inhibition values (IC50) PI3Ka
T2 construct: Jurkat cells were homogenized in a Potter S homogenizer in lysis buffer; endogenous in cells; host or cells: Jurkat, clone E6-1 (ATCC TIB-152) lysate
T2 sequence (P42336 whole entry): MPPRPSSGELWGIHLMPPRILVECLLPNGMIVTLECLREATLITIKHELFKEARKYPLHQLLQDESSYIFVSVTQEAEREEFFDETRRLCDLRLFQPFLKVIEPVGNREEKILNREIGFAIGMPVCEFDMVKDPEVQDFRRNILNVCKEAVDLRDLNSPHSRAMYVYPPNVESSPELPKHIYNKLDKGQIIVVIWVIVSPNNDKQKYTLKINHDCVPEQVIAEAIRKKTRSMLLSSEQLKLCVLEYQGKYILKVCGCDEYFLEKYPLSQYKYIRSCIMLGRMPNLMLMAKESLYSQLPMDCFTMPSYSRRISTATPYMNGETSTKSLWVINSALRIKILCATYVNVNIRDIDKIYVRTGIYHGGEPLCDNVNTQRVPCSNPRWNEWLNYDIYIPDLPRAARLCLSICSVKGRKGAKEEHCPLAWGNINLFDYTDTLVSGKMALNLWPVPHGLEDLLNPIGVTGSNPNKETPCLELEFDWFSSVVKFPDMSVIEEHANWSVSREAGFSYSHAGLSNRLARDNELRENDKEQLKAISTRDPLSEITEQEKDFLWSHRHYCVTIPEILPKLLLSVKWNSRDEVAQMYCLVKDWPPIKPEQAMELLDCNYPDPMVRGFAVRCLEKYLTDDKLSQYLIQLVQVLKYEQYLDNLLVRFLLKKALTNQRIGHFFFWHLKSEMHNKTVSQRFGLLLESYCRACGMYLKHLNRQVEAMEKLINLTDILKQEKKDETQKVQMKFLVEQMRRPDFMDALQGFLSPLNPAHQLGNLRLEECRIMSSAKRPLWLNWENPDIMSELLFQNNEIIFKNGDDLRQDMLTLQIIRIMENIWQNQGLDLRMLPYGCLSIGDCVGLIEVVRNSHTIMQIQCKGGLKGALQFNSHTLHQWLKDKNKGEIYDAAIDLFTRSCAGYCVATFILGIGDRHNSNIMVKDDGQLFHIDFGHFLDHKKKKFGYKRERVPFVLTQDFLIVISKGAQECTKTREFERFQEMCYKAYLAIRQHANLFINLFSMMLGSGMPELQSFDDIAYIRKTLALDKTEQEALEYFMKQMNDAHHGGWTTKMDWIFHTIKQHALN
T2 sequence (P27986 whole entry partner): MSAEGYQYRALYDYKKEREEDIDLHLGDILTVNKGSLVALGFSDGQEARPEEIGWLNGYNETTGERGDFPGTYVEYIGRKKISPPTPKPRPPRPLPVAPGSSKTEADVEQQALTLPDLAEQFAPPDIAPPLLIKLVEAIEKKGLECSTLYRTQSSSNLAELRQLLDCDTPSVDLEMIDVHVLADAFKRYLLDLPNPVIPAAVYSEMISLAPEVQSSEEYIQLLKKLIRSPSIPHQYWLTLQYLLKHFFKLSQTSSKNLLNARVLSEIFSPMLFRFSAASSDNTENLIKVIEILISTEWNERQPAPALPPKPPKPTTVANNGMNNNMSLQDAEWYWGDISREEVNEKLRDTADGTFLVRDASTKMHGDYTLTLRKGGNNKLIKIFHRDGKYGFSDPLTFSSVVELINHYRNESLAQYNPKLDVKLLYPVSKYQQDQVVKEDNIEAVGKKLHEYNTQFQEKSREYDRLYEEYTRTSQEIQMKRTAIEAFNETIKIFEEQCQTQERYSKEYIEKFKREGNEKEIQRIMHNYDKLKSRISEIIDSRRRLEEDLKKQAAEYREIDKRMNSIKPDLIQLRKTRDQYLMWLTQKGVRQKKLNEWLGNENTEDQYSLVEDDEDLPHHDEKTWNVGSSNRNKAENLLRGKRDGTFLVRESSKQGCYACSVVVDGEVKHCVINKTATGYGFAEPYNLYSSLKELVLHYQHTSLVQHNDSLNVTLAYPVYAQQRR
In short: as §1

PI3K beta (PI3Kb) = molecular target: T3, PI3K beta (PI3Kb) (Homo sapiens, UniProt P42338); experiment: kinobeads assay, PI3K beta; format: binding; conditions: Jurkat cell lysate, read-out: Inhibition values (IC50) PI3Kb
T3 construct: Jurkat cells were homogenized in a Potter S homogenizer in lysis buffer; endogenous in cells; host or cells: Jurkat, clone E6-1 (ATCC TIB-152) lysate
T3 sequence (P42338 whole entry): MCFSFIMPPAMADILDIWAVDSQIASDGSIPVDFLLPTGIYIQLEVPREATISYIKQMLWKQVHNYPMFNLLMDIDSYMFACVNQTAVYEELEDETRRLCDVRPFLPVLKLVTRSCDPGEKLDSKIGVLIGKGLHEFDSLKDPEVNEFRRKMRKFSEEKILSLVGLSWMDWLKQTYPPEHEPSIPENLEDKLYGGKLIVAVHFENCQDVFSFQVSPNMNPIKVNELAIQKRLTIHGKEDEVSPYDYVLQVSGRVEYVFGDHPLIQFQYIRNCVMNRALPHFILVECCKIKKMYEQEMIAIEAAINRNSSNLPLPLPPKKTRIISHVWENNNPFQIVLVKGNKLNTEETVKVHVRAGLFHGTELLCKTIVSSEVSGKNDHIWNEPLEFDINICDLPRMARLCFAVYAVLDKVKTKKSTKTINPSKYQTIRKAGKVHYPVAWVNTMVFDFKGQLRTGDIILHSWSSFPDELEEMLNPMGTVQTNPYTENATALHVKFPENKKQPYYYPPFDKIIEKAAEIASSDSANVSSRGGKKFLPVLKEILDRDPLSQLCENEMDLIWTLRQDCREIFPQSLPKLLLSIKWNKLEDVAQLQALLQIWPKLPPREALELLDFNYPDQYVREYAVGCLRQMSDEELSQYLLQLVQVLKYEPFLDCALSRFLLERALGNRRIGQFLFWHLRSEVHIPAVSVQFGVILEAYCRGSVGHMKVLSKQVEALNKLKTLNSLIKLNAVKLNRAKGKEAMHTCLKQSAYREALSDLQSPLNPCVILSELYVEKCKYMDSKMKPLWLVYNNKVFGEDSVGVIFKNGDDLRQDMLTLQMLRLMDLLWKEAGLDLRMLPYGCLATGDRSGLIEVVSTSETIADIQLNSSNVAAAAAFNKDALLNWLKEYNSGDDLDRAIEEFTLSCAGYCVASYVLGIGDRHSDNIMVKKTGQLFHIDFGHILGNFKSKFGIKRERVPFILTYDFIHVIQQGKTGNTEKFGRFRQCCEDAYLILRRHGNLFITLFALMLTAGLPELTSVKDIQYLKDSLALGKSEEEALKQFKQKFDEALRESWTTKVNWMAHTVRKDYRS
T3 sequence (P27986 whole entry partner): as the sequence (P27986 whole entry partner) above
In short: as §1

PI3K gamma (PI3Kg) = molecular target: T4, PI3K gamma (PI3Kg) (Homo sapiens, UniProt P48736); experiment: kinobeads assay, PI3K gamma; format: binding; conditions: Jurkat cell lysate, read-out: Inhibition values (IC50) PI3Kg
T4 construct: Jurkat cells were homogenized in a Potter S homogenizer in lysis buffer; endogenous in cells; host or cells: Jurkat, clone E6-1 (ATCC TIB-152) lysate
T4 sequence (P48736 whole entry): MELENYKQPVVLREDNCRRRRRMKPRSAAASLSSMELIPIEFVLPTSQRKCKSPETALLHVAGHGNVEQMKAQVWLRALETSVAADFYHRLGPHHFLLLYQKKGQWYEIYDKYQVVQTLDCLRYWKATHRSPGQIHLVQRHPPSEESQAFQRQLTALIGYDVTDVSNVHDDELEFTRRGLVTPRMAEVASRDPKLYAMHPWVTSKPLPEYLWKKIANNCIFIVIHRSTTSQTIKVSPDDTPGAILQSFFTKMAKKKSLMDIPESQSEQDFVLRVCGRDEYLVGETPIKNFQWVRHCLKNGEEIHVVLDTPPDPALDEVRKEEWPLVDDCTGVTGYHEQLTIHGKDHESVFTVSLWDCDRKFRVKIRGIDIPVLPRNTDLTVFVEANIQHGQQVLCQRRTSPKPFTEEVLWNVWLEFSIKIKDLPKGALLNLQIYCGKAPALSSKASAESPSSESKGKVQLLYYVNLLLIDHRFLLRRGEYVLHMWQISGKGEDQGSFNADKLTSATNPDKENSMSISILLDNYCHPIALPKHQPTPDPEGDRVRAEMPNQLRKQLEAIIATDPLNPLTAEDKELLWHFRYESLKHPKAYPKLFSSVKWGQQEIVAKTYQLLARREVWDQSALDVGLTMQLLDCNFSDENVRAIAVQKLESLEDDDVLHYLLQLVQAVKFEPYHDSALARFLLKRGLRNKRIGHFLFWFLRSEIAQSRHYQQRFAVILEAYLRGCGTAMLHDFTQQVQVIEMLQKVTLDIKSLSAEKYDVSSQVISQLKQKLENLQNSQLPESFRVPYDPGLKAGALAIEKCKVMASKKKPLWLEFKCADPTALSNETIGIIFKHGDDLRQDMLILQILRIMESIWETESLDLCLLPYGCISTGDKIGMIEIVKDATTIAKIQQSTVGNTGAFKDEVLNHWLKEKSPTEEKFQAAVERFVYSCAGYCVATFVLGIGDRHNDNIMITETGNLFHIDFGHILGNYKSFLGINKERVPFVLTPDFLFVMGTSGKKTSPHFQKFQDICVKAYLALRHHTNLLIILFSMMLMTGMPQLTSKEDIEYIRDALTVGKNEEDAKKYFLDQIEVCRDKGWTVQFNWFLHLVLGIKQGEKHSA
In short: as §1

PI3K delta (PI3Kd) = molecular target: T5, PI3K delta (PI3Kd) (Homo sapiens, UniProt O00329); experiment: kinobeads assay, PI3K delta; format: binding; conditions: Jurkat cell lysate, read-out: Inhibition values (IC50) PI3Kd
T5 construct: Jurkat cells were homogenized in a Potter S homogenizer in lysis buffer; endogenous in cells; host or cells: Jurkat, clone E6-1 (ATCC TIB-152) lysate
T5 sequence (O00329 whole entry): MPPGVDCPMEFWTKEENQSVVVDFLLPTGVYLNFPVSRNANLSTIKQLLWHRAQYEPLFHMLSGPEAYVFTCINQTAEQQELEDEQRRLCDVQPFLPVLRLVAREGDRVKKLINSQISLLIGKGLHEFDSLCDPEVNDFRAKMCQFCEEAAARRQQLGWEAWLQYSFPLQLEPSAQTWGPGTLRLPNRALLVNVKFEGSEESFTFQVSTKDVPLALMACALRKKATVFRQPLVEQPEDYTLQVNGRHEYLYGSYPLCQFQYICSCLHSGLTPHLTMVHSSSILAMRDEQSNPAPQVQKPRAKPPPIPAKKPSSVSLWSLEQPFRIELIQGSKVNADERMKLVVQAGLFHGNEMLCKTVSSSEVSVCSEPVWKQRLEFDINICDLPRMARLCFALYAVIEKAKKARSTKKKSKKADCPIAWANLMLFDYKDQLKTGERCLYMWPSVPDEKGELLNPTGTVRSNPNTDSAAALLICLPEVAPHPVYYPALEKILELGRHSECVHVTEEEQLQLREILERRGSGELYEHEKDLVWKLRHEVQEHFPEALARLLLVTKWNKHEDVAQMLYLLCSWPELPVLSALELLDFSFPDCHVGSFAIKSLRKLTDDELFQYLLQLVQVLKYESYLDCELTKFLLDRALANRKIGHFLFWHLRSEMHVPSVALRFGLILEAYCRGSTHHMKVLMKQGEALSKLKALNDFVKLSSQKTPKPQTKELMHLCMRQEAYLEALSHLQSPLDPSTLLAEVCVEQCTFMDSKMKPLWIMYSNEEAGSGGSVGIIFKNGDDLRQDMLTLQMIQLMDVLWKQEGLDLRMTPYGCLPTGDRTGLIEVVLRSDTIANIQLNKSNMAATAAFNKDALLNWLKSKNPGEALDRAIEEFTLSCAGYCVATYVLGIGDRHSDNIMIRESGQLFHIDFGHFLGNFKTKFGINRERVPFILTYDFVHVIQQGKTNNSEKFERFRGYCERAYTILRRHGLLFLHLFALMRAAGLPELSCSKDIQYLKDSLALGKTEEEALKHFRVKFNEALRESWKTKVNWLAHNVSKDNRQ
T5 sequence (P27986 whole entry partner): as the sequence (P27986 whole entry partner) above
In short: as §1

[1] = molecular target: T6, DNA-dependent protein kinase (DNA-PK) (Homo sapiens, UniProt P78527); experiment: kinobeads assay, DNA-PK; format: binding; conditions: Jurkat cell lysate, read-out: Inhibition values (IC50) DNA-PK
T6 construct: Jurkat cells were homogenized in a Potter S homogenizer in lysis buffer; endogenous in cells; host or cells: Jurkat, clone E6-1 (ATCC TIB-152) lysate
In short: as §1

[2] = test system: S6RP serine-240/244 phosphorylation; experiment: In vitro phospho-S6 cellular assay (HEK293T/17); format: cell-based; conditions: Homo sapiens; HEK293T/17 cells, 2 hours, pS6RP Ser240/244; read-out: Inhibition values (IC50) pS6
In short: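 HEK293T/17 cells in DMEM with 2% FCS were exposed to 8 compound concentrations (0.1% DMSO) for 2 h at 37 °C, then lysed. pS6RP Ser240/244 or pAkt Ser473 in the lysates was quantified by MSD sandwich electrochemiluminescence. IC50 was obtained by sigmoidal variable-slope nonlinear regression.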

[3] = test system: Akt serine-473 phosphorylation; experiment: In vitro phospho-Akt cellular assay (HEK293T/17); format: cell-based; conditions: Homo sapiens; HEK293T/17 cells, 2 hours, pAkt Ser 473; read-out: Inhibition values (IC50) pAkt
Text: Activation of mTOR signaling results in phosphorylation of several downstream targets. In cells, mTOR exists in two different protein complexes. The mTOR Complex-1 (mTORC1) phosphorylates and activates S6 Kinase 1 (S6K1) and S6 Kinase 2 (S6K2) (also known as p70S6K) which then phosphorylate S6 Ribosomal Protein (S6RP) (also known as RPS6)3. S6RP is phosphorylated on serine 235, senile 236, serine 240 and serine 244 by both pS6K1 and pS6K2. The mTOR Complex-2 (mTORC2) phosphorylates AKT on serine 473 which activates the AKT signaling pathway.
The assay measures a test compound's inhibition of S6RP serine-240/244 phosphorylation and inhibition of Akt serine-473 phosphorylation in human embryonic kidney derived HEK293T/17 cells (ATCC CRL-11268).
The HEK293T/17 cell line is maintained in DMEM media (Invitrogen catalogue number 41965-039) supplemented with 10% FCS at 37° C. in a 5% CO2 humidified incubator. Cells are seeded in 96-well plates at 40,000 cells/well (pS6RP S240/244 assay) or 80,000 cells/well (pAkt 5473 assay) in 90 μl growth media (DMEM, 2% FCS). Plates are incubated for 1 hour in a humidified incubator to allow the cells to adhere. Cells are treated with 8 concentrations of test compounds or DMSO alone for controls (final DMSO concentration 0.1%) and incubated at 37° C. for 2 hours. Then 20 μl of 5× concentrated lysis buffer (750 mM NaCl, 100 mM Tris pH7.4, 5 mM ADTA, 5 mM EGTA, 5% Triton X-100) is added, plates are sealed and incubated for 15 minutes at 4° C. with gentle shaking After cell lysis, 25 μl cell lysate is transferred to a MesoScale plate coated with an antibody to pS6RP Ser240/244 (MesoScale Discovery K150DGD-3) or an antibody to pAkt Ser 473 (MesoScale Discovery K151DGD-3). Plates have been blocked before by incubation with 150 μl MesoScale Discovery Blocking Solution-A for 1 hour at room temperature followed by washing with 150 μl 1×Tris wash buffer per well. After the transfer of the cell lysate to the MSD plate, the pS6RP (or pAkt) protein is captured on the coated antibody by incubation at room temperature for 1 hour with gentle shaking. After the capture step the plate is washed three times with 150 μl of 1× Tris wash buffer per well. Then 25 μl detection antibody conjugated with a Sulfo-Tag is added and incubated for 1 hour at room temperature with gentle shaking. Subsequently the antibody solution is removed and the plate is washed 3 times with 150 μl 1×Tris wash buffer per well and 150 μl Read buffer is added. The plates are analysed on a MSD 2400 Plate Reader (MesoScale Discovery). Data analysis is performed using nonlinear regression for a sigmoidal dose-response with a variable slope.

| SMILES | IC50 (mTOR) [µM] | IC50 (PI3K alpha (PI3Kα)) [µM] | IC50 (PI3K beta (PI3Kb)) [µM] | IC50 (PI3K gamma (PI3Kg)) [µM] | IC50 (PI3K delta (PI3Kd)) [µM] | IC50 [1] [µM] | IC50 [2] [µM] | IC50 [3] [µM] |
| --- | --- | --- | --- | --- | --- | --- | --- | --- |
| C[C@H]1COCCN1c1nc(-c2ccc(NC(=O)NCCO)cc2)nc(-c2ccccc2S(C)(=O)=O)n1 [Example 4, (S)-1-(2-hydroxyethyl)-3-(4-(4-(3-methylmorpholino)-6-(2-(methylsulfonyl)phenyl)-1,3,5-triazin-2-yl)phenyl)urea] | < 0.1 | > 10 | > 10 | > 10 | > 10 | > 10 | < 0.1 | < 0.1 |
| C[C@H]1COCCN1c1nc(-c2ccc(NC(=O)NC3CC3)cc2)nc(-c2cc(F)ccc2S(C)(=O)=O)n1 [Example 5, (S)-1-cyclopropyl-3-(4-(4-(5-fluoro-2-(methylsulfonyl)phenyl)-6-(3-methylmorpholino)-1,3,5-triazin-2-yl)phenyl)urea] | 0.1 to 1 | > 10 | > 10 | > 10 | > 10 | > 10 | < 0.1 | < 0.1 |
| CCNC(=O)Nc1ccc(-c2nc(-c3ccccc3S(C)(=O)=O)nc(N3CCOC[C@@H]3C)n2)cc1 [Example 10, (S)-1-ethyl-3-(4-(4-(3-methylmorpholino)-6-(2-(methylsulfonyl)phenyl)-1,3,5-triazin-2-yl)phenyl)urea] | < 0.1 | > 10 | > 10 | > 10 | > 10 | > 10 | < 0.1 | < 0.1 |
| C[C@H]1COCCN1c1nc(-c2ccc(NC(=O)NCC(O)C(F)(F)F)cc2)nc(-c2ccccc2S(C)(=O)=O)n1 (stereo partly drawn) [Example 33, 1-(4-(4-((S)-3-methylmorpholino)-6-(2-(methylsulfonyl)phenyl)-1,3,5-triazin-2-yl)phenyl)-3-(3,3,3-trifluoro-2-hydroxypropyl)urea] | 0.1 to 1 | > 10 | > 10 | > 10 | > 10 | > 10 | 0.1 to 1 | – |
| C[C@H]1COCCN1c1nc(-c2ccc(NC(=O)Nc3ccncc3)cc2)nc(-c2ccccc2S(C)(=O)=O)n1 [Example 35, (S)-1-(4-(4-(3-methylmorpholino)-6-(2-(methylsulfonyl)phenyl)-1,3,5-triazin-2-yl)phenyl)-3-(pyridin-4-yl)urea] | 0.1 to 1 | > 10 | > 10 | > 10 | > 10 | > 10 | < 0.1 | – |
| CCC1COCCN1c1nc(-c2ccc(NC(=O)NC3CC3)cc2)nc(-c2ccccc2S(C)(=O)=O)n1 (stereo not shown) [Example 36, 1-cyclopropyl-3-(4-(4-(3-ethylmorpholino)-6-(2-(methylsulfonyl)phenyl)-1,3,5-triazin-2-yl)phenyl)urea] | 0.1 to 1 | > 10 | > 10 | > 10 | > 10 | > 10 | < 0.1 | – |

More lines, now with the values ahead:

| IC50 (mTOR) [µM] | IC50 (PI3K alpha (PI3Kα)) [µM] | IC50 (PI3K beta (PI3Kb)) [µM] | IC50 (PI3K gamma (PI3Kg)) [µM] | IC50 (PI3K delta (PI3Kd)) [µM] | IC50 [1] [µM] | IC50 [2] [µM] | IC50 [3] [µM] | SMILES |
| --- | --- | --- | --- | --- | --- | --- | --- | --- |
| < 0.1 | > 10 | > 10 | > 10 | > 10 | > 10 | < 0.1 | < 0.1 | C[C@H]1COCCN1c1nc(-c2ccc(NC(=O)NC3CC3)cc2)nc(-c2ccccc2S(C)(=O)=O)n1 [Example 1, (S)-1-cyclopropyl-3-(4-(4-(3-methylmorpholino)-6-(2-(methylsulfonyl)phenyl)-1,3,5-triazin-2-yl)phenyl)urea] |
| < 0.1 | > 10 | > 10 | > 10 | > 10 | > 10 | 0.1 to 1 | < 0.1 | C[C@H]1COCCN1c1nc(-c2ccc(NC(=O)NCCO)cc2)nc(-c2cc(F)ccc2S(C)(=O)=O)n1 [Example 6, (S)-1-(4-(4-(5-fluoro-2-(methylsulfonyl)phenyl)-6-(3-methylmorpholino)-1,3,5-triazin-2-yl)phenyl)-3-(2-hydroxyethyl)urea] |
| < 0.1 | > 10 | > 10 | > 10 | > 10 | > 10 | < 0.1 | < 0.1 | C[C@H]1COCCN1c1nc(-c2ccc(NC(=O)NCCF)cc2)nc(-c2ccccc2S(C)(=O)=O)n1 [Example 7, (S)-1-(2-fluoroethyl)-3-(4-(4-(3-methylmorpholino)-6-(2-(methylsulfonyl)phenyl)-1,3,5-triazin-2-yl)phenyl)urea] |
| < 0.1 | > 10 | > 10 | > 10 | > 10 | > 10 | < 0.1 | < 0.1 | C[C@H]1COCCN1c1nc(-c2ccc(NC(=O)NCC(F)F)cc2)nc(-c2ccccc2S(C)(=O)=O)n1 [Example 8, (S)-1-(2,2-difluoroethyl)-3-(4-(4-(3-methylmorpholin)-6-(2-(methylsulfonyl)phenyl)-1,3,5-triazin-2-yl)phenyl)urea] |
| 0.1 to 1 | > 10 | > 10 | > 10 | > 10 | > 10 | < 0.1 | < 0.1 | CNC(=O)Nc1ccc(-c2nc(-c3ccccc3S(C)(=O)=O)nc(N3CCOC[C@@H]3C)n2)cc1 [Example 14, (S)-1-methyl-3-(4-(4-(3-methylmorpholino)-6-(2-(methylsulfonyl)phenyl)-1,3,5-triazin-2-yl)phenyl)urea] |
| 0.1 to 1 | > 10 | > 10 | > 10 | > 10 | > 10 | < 0.1 | – | C[C@H]1COCCN1c1nc(-c2ccc(NC(=O)NC3CC3(F)F)cc2)nc(-c2ccccc2S(C)(=O)=O)n1 (stereo partly drawn) [Example 29, 1-(2,2-difluorocyclopropyl)-3-(4-(4-((S)-3-methylmorpholino)-6-(2-(methylsulfonyl)phenyl)-1,3,5-triazin-2-yl)phenyl)urea] |
| 0.1 to 1 | > 10 | > 10 | > 10 | > 10 | > 10 | < 0.1 | – | C[C@H]1COCCN1c1nc(-c2ccc(NC(=O)NCC(F)(F)F)cc2)nc(-c2ccccc2S(C)(=O)=O)n1 [Example 32, (S)-1-(4-(4-(3-methylmorpholino)-6-(2-(methylsulfonyl)phenyl)-1,3,5-triazin-2-yl)phenyl)-3-(2,2,2-trifluoroethyl)urea] |
| 0.1 to 1 | > 10 | > 10 | > 10 | > 10 | > 10 | 0.1 to 1 | – | C[C@H]1COCCN1c1nc(-c2ccc(NC(=O)NC3CCOC3)cc2)nc(-c2ccccc2S(C)(=O)=O)n1 (stereo partly drawn) [Example 34, 1-(4-(4-((S)-3-methylmorpholino)-6-(2-(methylsulfonyl)phenyl)-1,3,5-triazin-2-yl)phenyl)-3-(tetrahydrofuran-3-yl)urea] |
